According to patent US10966430B2, “Natural fungicide composition” (GRIFFITH FOODS INTERNATIONAL INC., priority 2013, dated 2021):

Test system: Mycosphaerella fijiensis
Test: Second field trials: in vitro fungicidal activity, length of germinated ascospores on water-agar
Assay type: cell-based
Conditions: for % Inhibition: ascospores incubated 48 hours at 26° C. in darkness
Experimental: Additional field trials were conducted to evaluate the in vitro fungicidal activity of 14 composition embodiments in the treatment of Mycosphaerella fijiensis.
Culture media comprising 2% water-agar (Difco® Bacto® Agar) and 0.001, 0.01, 0.1, 1, 10, 100, and 1,000 mg/L of the active substance were each prepared in a petri dish for each composition. A separate culture media without any active substance was used as a control. For comparative fungicides F-11-01 to F-11-12 listed in Table 1 below, the active substance was the same as the composition as a whole.
Ascospores of Mycosphaerella fijiensis obtained from a banana plantation that had not been treated with any fungicides were discharged into each petri dish. After discharging the ascospores of Mycosphaerella fijiensis, each sample was incubated for 48 hours at 26° C. in complete darkness. After 48 hours of incubation, the length of 100 germinated ascospores at each concentration was measured.
After collecting the data, the average length of the germinated ascospores was calculated for each concentration. The average inhibition percentage was calculated for each sample fungicide at each concentration using the following formula:
where: • Lcontrol=average length of germinated ascospores of control sample • Lsample=average length of germinated ascospores of sample fungicide.
The average inhibition percentage was used to calculate EC50 for each sample fungicide. EC50 is the half maximal effective concentration, which refers to the concentration of sample fungicide that induces a response halfway between the baseline and maximum after a specified exposure time.

Polysorbate 80 [Fungicide F-11-09] was tested, and the “% Inhibition” value (0.001 mg/L) was 37.98%, the “% Inhibition” value (0.01 mg/L) was 42.6% and the “% Inhibition” value (0.1 mg/L) was 11.91%. The “% Inhibition” value (1 mg/L) was 31.87%, the “% Inhibition” value (10 mg/L) was 52.04% and the “% Inhibition” value (100 mg/L) was 46.24%. The “Natural Log” value (natural log belonging to the EC50 column) was 10.45.
